Assay results: PMC5218480 (PLoS ONE, 2017)

System: MV-4-11 cells
Assay: Gene expression microarray analysis (Affymetrix PrimeView) and GSEA
Format: cell-based, human
Design: RFU PODN (11730768_x_at) / Fold change /veh PODN (11730768_x_at) / RFU LINC00158 (11744669_a_at) / Fold change /veh LINC00158 (11744669_a_at) / RFU DUSP10 (11751237_a_at) / Fold change /veh DUSP10 (11751237_a_at) / RFU ID3 (11757404_x_at) / Fold change /veh ID3 (11757404_x_at) / RFU PLEKHG5 (11737974_s_at) / Fold change /veh PLEKHG5 (11737974_s_at) / RFU LRRC4B (11730491_at) / Fold change /veh LRRC4B (11730491_at) / RFU GIMAP4 (11747438_a_at) / Fold change /veh GIMAP4 (11747438_a_at) / RFU KRT8 (11758183_x_at) / Fold change /veh KRT8 (11758183_x_at) / RFU CNN1 (11734310_a_at) / Fold change /veh CNN1 (11734310_a_at) / RFU VPS37D (11726825_at) / Fold change /veh VPS37D (11726825_at) / RFU C10orf10 (11716522_x_at) / Fold change /veh C10orf10 (11716522_x_at) / RFU KIR2DL2 /// KIR2DL4 /// KIR2DL5A /// KIR2DL5B /// KIR2DS1 /// KIR2DS2 /// KIR2DS3 /// KIR2DS4 /// KIR3DL3 /// KIR3DL3 /// KIR3DS1 (11738374_at) / Fold change /veh KIR2DL2 /// KIR2DL4 /// KIR2DL5A /// KIR2DL5B /// KIR2DS1 /// KIR2DS2 /// KIR2DS3 /// KIR2DS4 /// KIR3DL3 /// KIR3DL3 /// KIR3DS1 (11738374_at) / RFU C1QL1 (11718748_at) / Fold change /veh C1QL1 (11718748_at) / RFU TMPRSS4 (11747572_a_at) / Fold change /veh TMPRSS4 (11747572_a_at) / RFU HAMP (11756126_x_at) / Fold change /veh HAMP (11756126_x_at) / RFU RNFT2 (11725882_a_at) / Fold change /veh RNFT2 (11725882_a_at) / RFU NR4A2 (11747474_a_at) / Fold change /veh NR4A2 (11747474_a_at) / RFU ABCC12 (11746883_a_at) / Fold change /veh ABCC12 (11746883_a_at) / RFU TMEM136 (11760407_x_at) / Fold change /veh TMEM136 (11760407_x_at) / RFU CLDN22 /// WWC2 (11732394_at) / Fold change /veh CLDN22 /// WWC2 (11732394_at) / RFU HLA-DPB1 (11760878_x_at) / Fold change /veh HLA-DPB1 (11760878_x_at) / RFU SPINT1 (11716480_a_at) / Fold change /veh SPINT1 (11716480_a_at) / RFU GAP43 (11754022_s_at) / Fold change /veh GAP43 (11754022_s_at) / RFU A4GNT (11735810_at) / Fold change /veh A4GNT (11735810_at) / RFU PRB3 (11715151_x_at) / Fold change /veh PRB3 (11715151_x_at) / RFU TUBB4B (11761932_at) / Fold change /veh TUBB4B (11761932_at) / RFU CAPN14 (11732068_a_at) / Fold change /veh CAPN14 (11732068_a_at) / RFU TMCC2 (11721928_a_at) / Fold change /veh TMCC2 (11721928_a_at) / RFU IRGQ (11745062_a_at) / Fold change /veh IRGQ (11745062_a_at) / RFU FAM174B (11720279_a_at) / Fold change /veh FAM174B (11720279_a_at) / RFU TMPRSS4 (11748680_a_at) / Fold change /veh TMPRSS4 (11748680_a_at) / RFU FAM212B (11763350_a_at) / Fold change /veh FAM212B (11763350_a_at) / RFU PLEKHG5 (11743358_a_at) / Fold change /veh PLEKHG5 (11743358_a_at) / RFU ZSCAN30 (11745921_a_at) / Fold change /veh ZSCAN30 (11745921_a_at) / RFU CMKLR1 (11741424_a_at) / Fold change /veh CMKLR1 (11741424_a_at) / RFU LOC101060620 /// MAPK8IP1 (11723275_at) / Fold change /veh LOC101060620 /// MAPK8IP1 (11723275_at) / RFU SPTSSB (11747773_x_at) / Fold change /veh SPTSSB (11747773_x_at) / RFU PRSS12 (11739890_at) / Fold change /veh PRSS12 (11739890_at) / RFU BIN1 (11741810_x_at) / Fold change /veh BIN1 (11741810_x_at) / RFU WNT11 (11732464_a_at) / Fold change /veh WNT11 (11732464_a_at) / RFU C10orf10 (11716521_a_at) / Fold change /veh C10orf10 (11716521_a_at) / RFU C5orf56 (11738089_at) / Fold change /veh C5orf56 (11738089_at) / RFU CYB561 (11721691_x_at) / Fold change /veh CYB561 (11721691_x_at) / RFU ANKRD19P (11752326_a_at) / Fold change /veh ANKRD19P (11752326_a_at) / RFU OR2T12 /// OR2T33 /// OR2T8 (11738714_s_at) / Fold change /veh OR2T12 /// OR2T33 /// OR2T8 (11738714_s_at) / RFU VCAN (11748164_a_at) / Fold change /veh VCAN (11748164_a_at) / RFU JSRP1 (11732532_at) / Fold change /veh JSRP1 (11732532_at) / RFU KRTAP10-11 (11738290_x_at) / Fold change /veh KRTAP10-11 (11738290_x_at) / RFU MYO3A (11730013_a_at) / Fold change /veh MYO3A (11730013_a_at) / RFU EBF3 (11725865_a_at) / Fold change /veh EBF3 (11725865_a_at) / RFU CAMK2N1 (11719241_x_at) / Fold change /veh CAMK2N1 (11719241_x_at) / RFU C5orf56 (11738088_a_at) / Fold change /veh C5orf56 (11738088_a_at) / RFU OLFML3 (11715873_a_at) / Fold change /veh OLFML3 (11715873_a_at) / RFU LOC100653217 /// NTM (11731650_a_at) / Fold change /veh LOC100653217 /// NTM (11731650_a_at) / RFU MAPK11 (11762145_a_at) / Fold change /veh MAPK11 (11762145_a_at) / RFU FIZ1 (11724087_x_at) / Fold change /veh FIZ1 (11724087_x_at) / RFU OASL (11726364_x_at) / Fold change /veh OASL (11726364_x_at) / RFU SOX15 (11748057_x_at) / Fold change /veh SOX15 (11748057_x_at) / RFU CD79A (11719716_a_at) / Fold change /veh CD79A (11719716_a_at) / RFU HIST1H1D (11736915_at) / Fold change /veh HIST1H1D (11736915_at) / RFU CASKIN2 (11723855_a_at) / Fold change /veh CASKIN2 (11723855_a_at) / RFU LOC730098 (11760151_x_at) / Fold change /veh LOC730098 (11760151_x_at) / RFU OR4N2 (11742367_at) / Fold change /veh OR4N2 (11742367_at) / RFU PRRT2 (11749266_a_at) / Fold change /veh PRRT2 (11749266_a_at) / RFU SNX32 (11753110_a_at) / Fold change /veh SNX32 (11753110_a_at) / RFU CDHR5 (11726645_a_at) / Fold change /veh CDHR5 (11726645_a_at) / RFU RCAN1 (11760418_a_at) / Fold change /veh RCAN1 (11760418_a_at) / RFU FAM167A (11723789_a_at) / Fold change /veh FAM167A (11723789_a_at) / RFU FAM26E (11764081_at) / Fold change /veh FAM26E (11764081_at) / RFU ISYNA1 (11749810_s_at) / Fold change /veh ISYNA1 (11749810_s_at) / RFU ACY1 (11761880_at) / Fold change /veh ACY1 (11761880_at) / RFU 11764098_at / Fold change /veh 11764098_at / RFU SAMD14 (11745864_x_at) / Fold change /veh SAMD14 (11745864_x_at) / RFU NPB (11741838_a_at) / Fold change /veh NPB (11741838_a_at) / RFU TMPRSS6 (11731388_a_at) / Fold change /veh TMPRSS6 (11731388_a_at) / RFU KRTAP10-2 (11738614_at) / Fold change /veh KRTAP10-2 (11738614_at) / RFU ARHGAP8 /// PRR5-ARHGAP8 (11727945_x_at) / Fold change /veh ARHGAP8 /// PRR5-ARHGAP8 (11727945_x_at) / RFU KRTAP5-7 /// NADSYN1 (11734609_at) / Fold change /veh KRTAP5-7 /// NADSYN1 (11734609_at) / RFU RASL12 (11751679_a_at) / Fold change /veh RASL12 (11751679_a_at) / RFU CDKN2B (11736163_a_at) / Fold change /veh CDKN2B (11736163_a_at) / RFU PRF1 (11729649_at) / Fold change /veh PRF1 (11729649_at) / RFU, ZNF638 /// ZNF638-IT1 / Fold change vs veh, ZNF638 /// ZNF638-IT1 / RFU, PANK3 / Fold change vs veh, PANK3 / RFU, SH3YL1 / Fold change vs veh, SH3YL1 / RFU, ZEB2 / Fold change vs veh, ZEB2 / RFU, NRIP1 / Fold change vs veh, NRIP1 / RFU, PTTG1IP / Fold change vs veh, PTTG1IP / RFU, CAPN2 / Fold change vs veh, CAPN2 / RFU, MED14 / Fold change vs veh, MED14 / RFU, SNORA58 / Fold change vs veh, SNORA58 / RFU, C1orf63 / Fold change vs veh, C1orf63 / RFU, LRRFIP1 / Fold change vs veh, LRRFIP1 / RFU, NDUFAF7 / Fold change vs veh, NDUFAF7 / RFU, SLC12A2 / Fold change vs veh, SLC12A2 / RFU, IBTK / Fold change vs veh, IBTK / RFU, ESF1 / Fold change vs veh, ESF1 / Fold change vs veh, TMEM50B / RFU, TAOK1 / Fold change vs veh, TAOK1 / RFU, ACBD3 / Fold change vs veh, ACBD3 / RFU, TMA16 / Fold change vs veh, TMA16 / RFU, RWDD3 / Fold change vs veh, RWDD3 / RFU, BCAT1 / Fold change vs veh, BCAT1 / RFU, EDEM3 / Fold change vs veh, EDEM3 / RFU, TMEM33 / Fold change vs veh, TMEM33 / RFU, WDR75 / Fold change vs veh, WDR75 / RFU, AHCTF1 / Fold change vs veh, AHCTF1 / RFU, TFRC / Fold change vs veh, TFRC / RFU, ZDHHC17 / Fold change vs veh, ZDHHC17 / RFU, NOM1 / Fold change vs veh, NOM1 / RFU, ARL8B / Fold change vs veh, ARL8B / RFU, ZBTB11 / Fold change vs veh, ZBTB11 / RFU, TAMM41 / Fold change vs veh, TAMM41 / RFU, KIAA1704 /// LOC100996395 / Fold change vs veh, KIAA1704 /// LOC100996395 / RFU, ING1 / Fold change vs veh, ING1 / RFU, TRMT61B / Fold change vs veh, TRMT61B / RFU, FUBP3 / Fold change vs veh, FUBP3 / RFU, TP53 / Fold change vs veh, TP53 / RFU, TNKS2 / Fold change vs veh, TNKS2 / RFU, ZFP14 / Fold change vs veh, ZFP14 / RFU, ACTR2 / Fold change vs veh, ACTR2 / RFU, PPP3R1 / Fold change vs veh, PPP3R1 / RFU, PIK3R1 / Fold change vs veh, PIK3R1 / RFU, HNRNPA1 / Fold change vs veh, HNRNPA1 / RFU, RNF170 / Fold change vs veh, RNF170 / RFU, ZNF28 / Fold change vs veh, ZNF28 / RFU, RNGTT / Fold change vs veh, RNGTT / RFU, OGT / Fold change vs veh, OGT / RFU, BRD1 / Fold change vs veh, BRD1 / RFU, MARS / Fold change vs veh, MARS / RFU, ZNF655 / Fold change vs veh, ZNF655 / RFU, FAHD1 / Fold change vs veh, FAHD1 / RFU, BDP1 / Fold change vs veh, BDP1 / RFU, LRRCC1 / Fold change vs veh, LRRCC1 / RFU, ARID1A / Fold change vs veh, ARID1A / RFU, ZNF146 / Fold change vs veh, ZNF146 / RFU, ZNF330 / Fold change vs veh, ZNF330 / RFU, GPN3 / Fold change vs veh, GPN3 / RFU, C9orf123 / Fold change vs veh, C9orf123 / RFU, N4BP2L2 / Fold change vs veh, N4BP2L2 / RFU, ARFIP1 / Fold change vs veh, ARFIP1 / RFU, FAM179B / Fold change vs veh, FAM179B / RFU, BCL10 / Fold change vs veh, BCL10 / RFU, UHRF1BP1L / Fold change vs veh, UHRF1BP1L / RFU, BET1 / Fold change vs veh, BET1 / RFU, CNOT2 / Fold change vs veh, CNOT2 / RFU, ZNF268 / Fold change vs veh, ZNF268 / Fold change vs veh, ZNF507 / RFU, DGCR2 / Fold change vs veh, DGCR2 / RFU, WDSUB1 / Fold change vs veh, WDSUB1 / Fold change vs veh, HSP90B1 /// MIR3652 / RFU, ADSS / Fold change vs veh, ADSS / RFU, GK / Fold change vs veh, GK / RFU, ZNF148 / Fold change vs veh, ZNF148 / RFU, TAF9 / Fold change vs veh, TAF9 / RFU, SLC1A5 / Fold change vs veh, SLC1A5 / RFU, SLMO2 / Fold change vs veh, SLMO2 / RFU, ABCC4 / Fold change vs veh, ABCC4 / RFU, LOC101060439 /// RAP1B / Fold change vs veh, LOC101060439 /// RAP1B / RFU, RFX7 / Fold change vs veh, RFX7 / RFU, GTPBP10 / Fold change vs veh, GTPBP10 / RFU, CNEP1R1 / Fold change vs veh, CNEP1R1 / RFU, BIVM-ERCC5 /// ERCC5 / Fold change vs veh, BIVM-ERCC5 /// ERCC5 / RFU, ILF3 / Fold change vs veh, ILF3 / RFU 11762660_at / Fold change /veh 11762660_at / RFU VCAN (11757783_s_at) / Fold change /veh VCAN (11757783_s_at) / RFU DDX43 (11728927_at) / Fold change /veh DDX43 (11728927_at) / RFU KRT8 (11758188_x_at) / Fold change /veh KRT8 (11758188_x_at) / RFU NKD1 (11759106_at) / Fold change /veh NKD1 (11759106_at) / RFU SRD5A1 (11742802_a_at) / Fold change /veh SRD5A1 (11742802_a_at) / RFU TPSAB1 /// TPSB2 (11721975_s_at) / Fold change /veh TPSAB1 /// TPSB2 (11721975_s_at) / RFU GSTM3 (11746129_a_at) / Fold change /veh GSTM3 (11746129_a_at) / RFU IL23R (11737362_x_at) / Fold change /veh IL23R (11737362_x_at) / RFU TMEM51 (11727254_a_at) / Fold change /veh TMEM51 (11727254_a_at) / RFU PIWIL2 (11732686_x_at) / Fold change /veh PIWIL2 (11732686_x_at) / RFU ORM1 (11744905_x_at) / Fold change /veh ORM1 (11744905_x_at) / RFU CCDC152 (11743942_at) / Fold change /veh CCDC152 (11743942_at) / RFU ECM1 (11717891_a_at) / Fold change /veh ECM1 (11717891_a_at) / RFU IL23R (11748794_a_at) / Fold change /veh IL23R (11748794_a_at) / RFU TNFAIP8L3 (11732012_x_at) / Fold change /veh TNFAIP8L3 (11732012_x_at) / RFU MBOAT4 (11741988_at) / Fold change /veh MBOAT4 (11741988_at) / RFU 11764193_at / Fold change /veh 11764193_at / RFU TMEM53 (11763286_at) / Fold change /veh TMEM53 (11763286_at) / RFU MAGEB2 (11727129_at) / Fold change /veh MAGEB2 (11727129_at) / RFU TMEM200A (11744735_a_at) / Fold change /veh TMEM200A (11744735_a_at) / RFU CCDC152 (11751479_a_at) / Fold change /veh CCDC152 (11751479_a_at) / RFU FAM211A (11726209_a_at) / Fold change /veh FAM211A (11726209_a_at) / RFU RGS16 (11746705_a_at) / Fold change /veh RGS16 (11746705_a_at) / RFU VCAN (11755009_s_at) / Fold change /veh VCAN (11755009_s_at) / RFU RHOB (11743442_s_at) / Fold change /veh RHOB (11743442_s_at) / RFU RGS16 (11720943_a_at) / Fold change /veh RGS16 (11720943_a_at) / RFU RGS16 (11720944_at) / Fold change /veh RGS16 (11720944_at) / RFU, VPS4B / Fold change vs veh, VPS4B / RFU, CREB1 / Fold change vs veh, CREB1 / RFU, DNAJC13 / Fold change vs veh, DNAJC13 / RFU, GNAQ / Fold change vs veh, GNAQ / RFU, CDK5R1 / Fold change vs veh, CDK5R1 / RFU, ZRANB3 / Fold change vs veh, ZRANB3 / RFU, CUL4A / Fold change vs veh, CUL4A / RFU, CCNY / Fold change vs veh, CCNY / RFU, UFL1 / Fold change vs veh, UFL1 / RFU, COG3 / Fold change vs veh, COG3 / RFU, DIAPH2 / Fold change vs veh, DIAPH2 / RFU, SKA2 / Fold change vs veh, SKA2 / RFU, AFF3 / Fold change vs veh, AFF3 / RFU, LMF1 / Fold change vs veh, LMF1 / RFU, IPO11 / Fold change vs veh, IPO11 / RFU, DFFB / Fold change vs veh, DFFB / RFU, FOXP1 / Fold change vs veh, FOXP1 / RFU, CARD8 / Fold change vs veh, CARD8 / RFU, STRN3 / Fold change vs veh, STRN3 / RFU, ADK / Fold change vs veh, ADK / RFU, RASSF2 / Fold change vs veh, RASSF2 / RFU, WIPF1 / Fold change vs veh, WIPF1 / RFU, LARP1B / Fold change vs veh, LARP1B / RFU, RASA1 / Fold change vs veh, RASA1 / RFU, RB1 / Fold change vs veh, RB1 / RFU, PPFIA1 / Fold change vs veh, PPFIA1 / RFU, MAT2A / Fold change vs veh, MAT2A / RFU, CCT5 / Fold change vs veh, CCT5 / RFU, WDR92 / Fold change vs veh, WDR92 / RFU, CUX1 / Fold change vs veh, CUX1 / RFU, TTC7A / Fold change vs veh, TTC7A / RFU, TMEM135 / Fold change vs veh, TMEM135 / RFU, DEPTOR / Fold change vs veh, DEPTOR / RFU, CPM / Fold change vs veh, CPM / RFU, DNAJB6 / Fold change vs veh, DNAJB6 / RFU, CACNA2D3 / Fold change vs veh, CACNA2D3 / RFU, DTX4 / Fold change vs veh, DTX4 / RFU, TFCP2 / Fold change vs veh, TFCP2 / RFU, GMCL1 /// GMCL1P1 / Fold change vs veh, GMCL1 /// GMCL1P1 / RFU, AEBP2 / Fold change vs veh, AEBP2 / RFU, SNHG1 /// SNORD22 /// SNORD25 /// SNORD26 /// SNORD27 /// SNORD28 /// SNORD29 /// SNORD31 / Fold change vs veh, SNHG1 /// SNORD22 /// SNORD25 /// SNORD26 /// SNORD27 /// SNORD28 /// SNORD29 /// SNORD31 / Fold change (Aza/veh), C12orf56 (ProbeSet 11735607_a_at) / Fold change (ACY-1035/veh), C12orf56 (ProbeSet 11735607_a_at) / Fold change (Aza/veh), FGFR1OP (ProbeSet 11751329_s_at) / Fold change (ACY-1035/veh), FGFR1OP (ProbeSet 11751329_s_at) / Fold change (Aza/veh), VPS36 (ProbeSet 11739960_a_at) / Fold change (ACY-1035/veh), VPS36 (ProbeSet 11739960_a_at) / RFU SYPL1 (11715823_x_at) / Fold change /veh SYPL1 (11715823_x_at) / RFU IGFBP7 (11715501_s_at) / Fold change /veh IGFBP7 (11715501_s_at) / RFU REEP3 (11722064_at) / Fold change /veh REEP3 (11722064_at) / RFU IGLL1 (11728026_x_at) / Fold change /veh IGLL1 (11728026_x_at): dose or concentration left out as unconfirmed
Conditions: ProbeSet 11739696_s_at; LIST D

Nc1ccc(-c2cccs2)cc1NC(=O)c1ccc2c(c1)cc(C1CC1)n2CCN1CCOCC1 [ACY-1035]
RFU, AFF3: 669.34 RFU
